Experimental data taken from patent US4950686A, “Anti-mycoplasma agent” (Shionogi & Co., Ltd., priority 1986, dated 1990).
≈ marks a conversion by molar mass, not a printed value. Like-named read-outs stand apart in the source and are kept apart here.

How the values were obtained:
Assay type in all cases: cell-based
[1] = tested on: Mycoplasma gallisepticum S6 (standard strain); test: Anti-mycoplasma activity in vitro (MIC, broth dilution), strain S6; conditions: Mg S6, 37° C., 7 days
Description: (§1) (1) Anti-mycoplasma activity test in vitro
(§2) MIC values of each of Tropolones were measured on the following strains according to the following method.
(§3) (a) Mycoplasma gallisepticum
(§4) Medium: Chick PPLO broth supplemented with 20% equine serum (Eiken Kagaku Co., Ltd.)
(§5) Method: Broth dilution method
(§6) Inoculum: Culture incubated at 37° C. for 24-48 hr which is diluted with broth to 10^6 CCU/ml immediately before the use.
(§7) To 1.6 ml of the broth is added 0.2 ml of an agent which has been subjected to 2-fold dilution and then added 0.2 ml of inoculum, which is incubated at 37° C. for 7 days.

[2] = tested on: Mycoplasma hyopneumoniae ST-11 (standard strain); test: Anti-mycoplasma activity in vitro (MIC, broth dilution), strain ST-11; conditions: Mh ST-11
Description: as §1, §2
(b) Mycoplasma hyopneumoniae
Strain: ST-11 (standard strain)
Medium: 850 ml of Hanks' solution supplemented with 0.5% lactoalbumin, 50 ml of 25% yeast, 100 ml of equine serum and 4-6 ml of 0.5% phenol red (pH 7.4-7.6)
as §5
Inoculum: Culture which is incubated for 3-4 days and diluted 10 times with the broth if color of the broth becomes yellow then. If it needs over 4 days until color of the broth becomes yellow, it is further subcultured. This is diluted 10 times with the broth to give inoculum.
Assay is done in the same manner as in the above (a).

[3] = tested on: Mycoplasma gallisepticum T-7-T (wild strain, tylosin-resistant); test: Anti-mycoplasma activity in vitro (MIC, broth dilution), strain T-7-T; conditions: Mg T-7-T, 37° C., 7 days
Description: as §1, §2, §3
T-7-T (wild strain, tylosin-resistant)
as §4, §5, §6, §7

[4] = tested on: Mycoplasma gallisepticum MR-1 (wild strain, tylosin-resistant); test: Anti-mycoplasma activity in vitro (MIC, broth dilution), strain MR-1; conditions: Mg MR-1, 37° C., 7 days
Description: as §1, §2, §3
MR-1 (wild strain, tylosin-resistant)
as §4, §5, §6, §7

[5] = Mycoplasmoides gallisepticum, 168 h, read-out: MIC
[6] = Mesomycoplasma hyopneumoniae, read-out: MIC

| Compound | MIC [1, 5] [µg/mL] | MIC [2, 6] [µg/mL] | MIC [3, 5] [µg/mL] | MIC [4, 5] [µg/mL] | MIC [1] [µg/mL] | MIC [2] [µg/mL] | MIC [3] [µg/mL] | MIC [4] [µg/mL] |
| --- | --- | --- | --- | --- | --- | --- | --- | --- |
| O=c1c(O)ccccc1O [Compound 27, 7-Hydroxytropolone] | 12.5 (≈ 90.5 µM) | 12.5 (≈ 90.5 µM) | 12.5 (≈ 90.5 µM) | 12.5 (≈ 90.5 µM) | – | – | – | – |
| Cc1ccccc(O)c1=O [Compound 28, 7-Methyltropolone] | 0.1 (≈ 0.734 µM) | 0.1 (≈ 0.734 µM) | 0.39 (≈ 2.86 µM) | 0.2 (≈ 1.47 µM) | – | – | – | – |
| Tropolone cobalt complex [Compound 3] | – | – | – | – | 1.56 | 0.78 | 1.56 | 3.13 |
| Tropolone iron complex [Compound 1] | – | – | – | – | 0.78 | 0.39 | 0.78 | 0.56 |
| Tropolone zinc salt [Compound 7] | – | – | – | – | 1.56 | 0.78 | 3.13 | 3.13 |
